# Where two headings read alike, the source gives them in different places.
# Legend:
# aromatase (CYP19A1) = target: T1, aromatase (CYP19A1) (Homo sapiens, UniProt P11511); test: Aromatase inhibition assay (Corning Supersomes CYP19/MFC kit, fluorescent); type: biochemical; conditions: 37 °C, mean ± SD of at least three measurements
# T1 construct: purchased Corning (Corning, NY)
# T1 sequence (P11511 1-503): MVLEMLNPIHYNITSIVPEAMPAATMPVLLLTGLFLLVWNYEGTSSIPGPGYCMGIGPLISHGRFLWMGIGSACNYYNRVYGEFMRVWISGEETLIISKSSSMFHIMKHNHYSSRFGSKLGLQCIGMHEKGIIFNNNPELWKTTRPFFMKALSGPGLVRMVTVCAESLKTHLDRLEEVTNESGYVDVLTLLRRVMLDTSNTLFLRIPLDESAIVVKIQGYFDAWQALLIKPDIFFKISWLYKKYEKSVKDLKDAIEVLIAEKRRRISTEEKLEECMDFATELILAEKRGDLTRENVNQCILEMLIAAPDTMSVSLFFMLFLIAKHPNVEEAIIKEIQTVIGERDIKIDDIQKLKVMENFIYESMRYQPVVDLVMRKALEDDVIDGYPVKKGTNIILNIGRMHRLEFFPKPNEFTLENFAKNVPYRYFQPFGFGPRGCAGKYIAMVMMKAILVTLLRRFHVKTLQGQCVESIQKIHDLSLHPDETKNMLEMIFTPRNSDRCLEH
# Procedure: Formation of a fluorescent metabolite was measured at Ex/Em of 409 nm/530 nm. Data represents mean ± SD of at least three independent measurements.
# To evaluate the aromatase inhibitory potential of hops, licorice species, and their bioactive compounds, the Corning® Supersomes™ P450 Inhibition Kit CYP19/MFC high throughput inhibition assay was used. The protocol of the kit, which is based on the effects of the tested agents on the conversion of the fluorescent substrate, 7-methoxy-4-trifluoromethyl coumarin (MFC) to 7-hydroxy-4-trifluoromethyl coumarin (HFC) by aromatase, was followed. […] Then the enzyme/substrate mixture containing the aromatase enzyme and MFC were added to the pre-incubated mixture and were incubated at 37 °C for 30 min before stopping the enzymatic reaction with the stop solution. The fluorescent signal was evaluated at the Excitation/Emission of 409 nm/530 nm and was corrected for the potential innate fluorescence of the tested extracts and compounds.
# ERα = conditions: read-out: ERα binding (IC50), cited from earlier work
# ERβ = conditions: read-out: ERβ binding (IC50), cited from earlier work
# uterus [1] = test: In vivo uterotrophic study in immature female Sprague-Dawley rats; parameters: species or system rat; conditions: 3 days
# Procedure: Animals were sacrificed on day 4 and their uterine weights were measured.
# We used the OECD guidelines and animal model for testing uterotrophic or estrogenic activity of compounds[49]. […] The animals were treated for 3 days every 24 h. Animal weight and food intake were evaluated daily. Animals were sacrificed by CO2 asphyxiation. Uterus was collected, trimmed of fat and connective tissue, and weighted.
# CYP19A1 expression = test: qPCR of CYP19A1 mRNA in high-risk postmenopausal breast tissue microstructures; type: cell-based, human; conditions: 24 h, vs vehicle; for Suppression of baseline CYP19A1 expression: 5 µM, six subjects' tissues
# Procedure: Subsequently, RNA extraction and qPCR of CYP19A1 was performed. The expression of CYP19A1 mRNA was calculated relative to the housekeeping gene RPLP0 and normalized to DMSO control.
# The unaffected contralateral breast tissues of postmenopausal women who underwent bilateral mastectomy due to incident unilateral breast cancer were obtained while fresh and diced to approximately 5 mm pieces before digesting at 37 °C with 2% collagenase I in F12-K nutrient mix (Kaighn’s) medium, overnight. After the completion of digestion, the tissue was centrifuged at 250×g for 5 min and the supernatant was discarded. The pellet was washed with phosphate buffered saline and was mixed and cultured in MammoCult media supplemented with 0.2% heparin and 0.5% hydrocortisone. After 24 h incubation at 37 °C the treatments were mixed with fresh MammoCult media and added to the microstructures.
# After 24 h incubation with the treatments, the microstructure pellet of the first 6 donors’ samples were prepared separately (not pooled) and washed with HBSS. Trizol was added to each pellet and the protocol of Direct-Zol RNA prep kit was used to extract RNA. The protocol included a step of DNAse I treatment for removing DNA contamination of the RNA preparations. RNA was eluted in nuclease free water and the concentration was measured using Nano Drop 2000 spectrophotometry (Thermo Fisher). The Integrated DNA Technologies (IDT) protocol, pre-made aromatase (CYP19A1) gene primer, and the pre-made housekeeping RPLP0 gene primer was used to perform qPCR using QuantStudio 12 K Flex Real Time PCR system.
# MCF-7 cells = test: MCF-7 cell proliferation by IncuCyte live cell imaging; type: cell-based, human
# Procedure: Cell proliferation was monitored using live cell imaging by IncuCyte. Data represents the mean of at least two independent observations ± SEM.
# MCF-7 cells were seeded at density of 2.5 × 10^3 cells/well in RPMI media supplemented with 10% FBS. Cells were placed in IncuCyte for live cell imaging every 6 h, and were monitored. […] Treatments were repeated every 48 h until day 6 and cells were monitored until day 12. Data was analyzed using Zoom software to quantify the images and were plotted as mean ± SD of at least two independent measurements.
# uterus [2] = system: uterus; parameters: method as in PMID 18619951, PMID 34848279; conditions: cited from earlier work
# [3] = ref J Agric Food Chem. 2020, 68: 10651–10663
structure (smiles),measurement,setting,value
"CC(C)=CCc1c(O)cc(O)c2c(=O)cc(-c3ccc(O)cc3)oc12 [8-PA, 8-prenylapigenin]",IC50,aromatase (CYP19A1),590 ± 80 nM
same,IC50,ERα; [3],100 ± 50 nM
same,IC50,ERβ; [3],30 ± 10 nM
"O=C(/C=C/c1ccc(O)cc1)c1ccc(O)cc1O [LigC, isoliquiritigenin]",IC50,aromatase (CYP19A1),4000 ± 300 nM
same,IC50,"ERα; ref PLoS One, 2013, 8: e67947",16000 ± 1000 nM
same,IC50,"ERβ; ref PLoS One, 2013, 8: e67947",7800 ± 100 nM
"C[C@]12CC[C@@H]3c4ccc(OC(=O)c5ccccc5)cc4CC[C@H]3[C@@H]1CC[C@@H]2O [Estradiol benzoate, 17β-estradiol benzoate, reference compound]",Uterine weight vs vehicle,uterus [1]; 1.6 µg/kg.day s.c.,significantly enhanced uterine weight (nearly doubled)
"O=C1C[C@@H](c2ccc(O)cc2)Oc2cc(O)ccc21 [LigF, liquiritigenin]",IC50,aromatase (CYP19A1),430 ± 20 nM
same,Suppression of baseline CYP19A1 expression,CYP19A1 expression,25%
same,Uterine growth vs vehicle,uterus [1]; 50 mg/kg.day s.c.,"did not enhance uterine growth, significantly"
same,E2-induced uterine growth,uterus [1]; 150 mg/kg.day s.c. co-administered with estradiol benzoate 1.6 µg/kg.day,"suppressed E2-induced uterine growth, significantly"
same,Uterine growth vs vehicle,uterus [1]; 150 mg/kg.day s.c.,"did not enhance uterine growth, significantly"
same,Cell proliferation after treatment halted,"MCF-7 cells; 20 µM, treatment halted after third dose (six days)",reached full confluency on day 10
same,Cell proliferation after treatment halted,"MCF-7 cells; 40 µM, last dose on day 6",maintained a significantly reduced proliferation rate until the end of the study (day 11)
same,Cytotoxicity,MCF-7 cells; MCF-7 cells exposed to LigF,did not detect cytotoxicity
same,Cell proliferation,MCF-7 cells; repeated doses of 20 µM every 48 h,profound suppression of proliferation
same,Cell proliferation,MCF-7 cells; repeated doses of 40 µM every 48 h,profound suppression of proliferation
same,Cell proliferation after a single dose,MCF-7 cells; single dose,clear reduction in cell proliferation for up to 48 h
same,IC50,"ERα; ref PLoS One, 2013, 8: e67947",> 200000 nM
"CC(C)=CCc1c(O)cc(O)c2c1O[C@H](c1ccc(O)cc1)CC2=O [8-PN, 8-prenylnaringenin]",IC50,aromatase (CYP19A1),50 ± 4 nM
same,Suppression of CYP19A1 expression,"CYP19A1 expression; 10 µM, 5 subjects' tissues",40%
same,Uterine growth,uterus [2],enhance uterine growth
"C=CC(C)(C)c1cc(/C=C/C(=O)c2ccc(O)cc2)c(OC)cc1O [LicA, licochalcone A]",IC50,aromatase (CYP19A1),3200 ± 100 nM
same,Suppression of baseline CYP19A1 expression,CYP19A1 expression,~40%
"COc1cc(O)c(CC=C(C)C)c(O)c1C(=O)/C=C/c1ccc(O)cc1 [XH, xanthohumol]",IC50,aromatase (CYP19A1),4300 ± 600 nM
"CC(C)=CCc1c(O)cc2c(c1O)C(=O)C[C@@H](c1ccc(O)cc1)O2 [6-PN, 6-prenylnaringenin]",IC50,aromatase (CYP19A1),7400 ± 300 nM
